In publication PMC10281575, “PfCRT mutations conferring piperaquine resistance in falciparum malaria shape the kinetics of quinoline drug binding and transport” (PLOS Pathogens, 2023):
Positions count from the first letter of the chain named. Entries after “also recorded” stand apart in the source; their conditions may differ.

Columns and labels:
[1] = target: T1, PfCRT^Dd2 (Plasmodium falciparum, UniProt Q8IBZ9, A220S/I356T/K76T/M74I/N326S/N75E/Q271E/R371I); design: expressed in transfected cells; host or cells: Xenopus laevis oocytes injected with in vitro transcribed RNA (pSP64T); conditions: cited from earlier work
T1 sequence (Q8IBZ9 1-424 M74I/N75E/K76T/A220S/Q271E/N326S/I356T/R371I): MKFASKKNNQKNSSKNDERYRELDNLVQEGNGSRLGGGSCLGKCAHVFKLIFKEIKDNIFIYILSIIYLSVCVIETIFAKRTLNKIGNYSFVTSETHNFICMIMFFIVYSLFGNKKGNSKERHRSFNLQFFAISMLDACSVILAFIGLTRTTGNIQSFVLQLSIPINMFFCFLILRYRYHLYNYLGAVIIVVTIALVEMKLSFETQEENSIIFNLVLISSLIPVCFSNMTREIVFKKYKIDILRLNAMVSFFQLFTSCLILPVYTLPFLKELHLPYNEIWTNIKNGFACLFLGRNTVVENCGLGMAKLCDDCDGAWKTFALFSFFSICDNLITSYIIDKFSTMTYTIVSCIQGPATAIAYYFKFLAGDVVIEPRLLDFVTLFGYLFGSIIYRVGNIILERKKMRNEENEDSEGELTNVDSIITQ

[2] = target: T2, PfCRT^Dd2_H97Y (Plasmodium falciparum, UniProt Q8IBZ9, A220S/H97Y/I356T/K76T/M74I/N326S/N75E/Q271E/R371I); assay: Verapamil inhibition of PfCRT-mediated CQ and PPQ transport in oocytes, PfCRT^Dd2_H97Y; type: cell-based; conditions: 100 μM verapamil, 50 μM CQ or PPQ
T2 construct: expressed in transfected cells; host or cells: Xenopus laevis oocytes injected with in vitro transcribed RNA (pSP64T)
T2 sequence (Q8IBZ9 1-424 M74I/N75E/K76T/H97Y/A220S/Q271E/N326S/I356T/R371I): T1 sequence (Q8IBZ9 1-424 M74I/N75E/K76T/A220S/Q271E/N326S/I356T/R371I) with H97Y
Protocol: (§1) In all cases, the PfCRT-mediated CQ and PPQ transport was inhibited in the presence of 100 μM verapamil (S3 Fig).
(§2) Drug transport assays were performed as previously described. Briefly, measurements of radiolabeled drug uptake were made over 1 h, unless otherwise specified. […] Where specified, one or more unlabeled drugs were also present at the indicated concentrations. The direction of drug transport in the assays is from the extracellular medium (pH 6) into the oocyte cytosol (pH 7.2), which corresponds to the efflux of CQ or PPQ from the acidic digestive vacuole (pH 5.2) into the parasite cytosol (pH 7.2). The uptake assays were terminated by removing the oocytes from the reaction medium and washing them three times with 2 mL of ice-cold ND96 buffer. Each oocyte was transferred to a separate scintillation vial and lysed by the addition of 200 μL of a 5% SDS solution. The radioactivity in the sample was measured using a liquid scintillation analyser Tri-Carb 4910 TR (PerkinElmer). Water-injected oocytes were analyzed in parallel as a negative control. The buffer from each condition was measured in duplicate in parallel to each experiment to transform counts per minute into pmol of drug. Drug uptake attributable to PfCRT was determined by subtracting the background uptake from water-injected oocytes from that of PfCRT-expressing oocytes. In all cases, at least three independent experiments were performed on oocytes from different frogs, and for each condition in an experiment, measurements were made from 10 oocytes per treatment.
(§3) Supplementary file ppat.1011436.s006.tif: S3 Fig Verapamil inhibits PfCRT-mediated transport of CQ and PPQ. […] Left panels, data is shown as individual biological replicates (coloured symbols) overlaid onto bars representing the Mean ± S.E.M. (error bars). A one-tailed Student’s t-test was performed between untreated (no VP) and treated (+ 100 μM VP) samples, and the obtained p values are shown. Right panels, the uptake in VP-treated samples was divided by the uptake in their corresponding untreated pairs and subtracted from 100% to get the percentage of uptake inhibition mediated by the presence of 100 μM verapamil in the extracellular medium. Error bars are S.E. (TIF) Click here for additional data file.

[3] = target: T3, PfCRT^Dd2_F145I (Plasmodium falciparum, UniProt Q8IBZ9, A220S/F145I/I356T/K76T/M74I/N326S/N75E/Q271E/R371I); assay: Verapamil inhibition of PfCRT-mediated CQ and PPQ transport in oocytes, PfCRT^Dd2_F145I; type: cell-based; conditions: 100 μM verapamil, 50 μM CQ or PPQ
T3 construct: expressed in transfected cells; host or cells: Xenopus laevis oocytes injected with in vitro transcribed RNA (pSP64T)
T3 sequence (Q8IBZ9 1-424 M74I/N75E/K76T/F145I/A220S/Q271E/N326S/I356T/R371I): T1 sequence (Q8IBZ9 1-424 M74I/N75E/K76T/A220S/Q271E/N326S/I356T/R371I) with F145I
Protocol: as §1
as §2, with “In all cases, at least three independent experiments were performed on oocytes from different frogs, and for each condition in an experiment, measurements were made from 10 oocytes per treatment.” left out

[4] = target: T4, PfCRT^Dd2_M343L (Plasmodium falciparum, UniProt Q8IBZ9, A220S/I356T/K76T/M343L/M74I/N326S/N75E/Q271E/R371I); assay: Verapamil inhibition of PfCRT-mediated CQ and PPQ transport in oocytes, PfCRT^Dd2_M343L; type: cell-based; conditions: 100 μM verapamil, 50 μM CQ or PPQ
T4 construct: expressed in transfected cells; host or cells: Xenopus laevis oocytes injected with in vitro transcribed RNA (pSP64T)
T4 sequence (Q8IBZ9 1-424 M74I/N75E/K76T/A220S/Q271E/N326S/M343L/I356T/R371I): T1 sequence (Q8IBZ9 1-424 M74I/N75E/K76T/A220S/Q271E/N326S/I356T/R371I) with M343L
Protocol: as §1, §2, §3

[5] = target: T5, PfCRT^Dd2_G353V (Plasmodium falciparum, UniProt Q8IBZ9, A220S/G353V/I356T/K76T/M74I/N326S/N75E/Q271E/R371I); assay: Verapamil inhibition of PfCRT-mediated CQ and PPQ transport in oocytes, PfCRT^Dd2_G353V; type: cell-based; conditions: 100 μM verapamil, 50 μM CQ or PPQ
T5 construct: expressed in transfected cells; host or cells: Xenopus laevis oocytes injected with in vitro transcribed RNA (pSP64T)
T5 sequence (Q8IBZ9 1-424 M74I/N75E/K76T/A220S/Q271E/N326S/G353V/I356T/R371I): T1 sequence (Q8IBZ9 1-424 M74I/N75E/K76T/A220S/Q271E/N326S/I356T/R371I) with G353V
Protocol: as §1, §2, §3

[6] = target: T1, PfCRT^Dd2; assay: Verapamil inhibition of PfCRT-mediated CQ and PPQ transport in oocytes, PfCRT^Dd2; type: cell-based; design: expressed in transfected cells; host or cells: Xenopus laevis oocytes injected with in vitro transcribed RNA (pSP64T); conditions: 100 μM verapamil, 50 μM CQ or PPQ
Protocol: as §1, §2, §3

For `C=C[C@H]1C[N@@]2CC[C@H]1C[C@H]2[C@H](O)c1ccnc2ccc(OC)cc12` [quinine], the “inhibition model versus CQ on PfCRT” value [1] is listed as “partial mixed-type inhibition”.

For `COc1ccc(CCN(C)CCCC(C#N)(c2ccc(OC)c(OC)c2)C(C)C)cc1OC` (stereo not shown) [verapamil], the “PfCRT-mediated CQ and PPQ transport in the presence of verapamil” value (from here on “PfCRT-mediated CQ and PPQ transport”) [2] was “inhibited”, the “PfCRT-mediated CQ and PPQ transport” value [3] was “inhibited” and the “PfCRT-mediated CQ and PPQ transport” value [4] was “inhibited”. For the same compound, the “PfCRT-mediated CQ and PPQ transport” value [5] was “inhibited”, the “PfCRT-mediated CQ and PPQ transport” value [6] was “inhibited” and the “inhibition model versus CQ on PfCRT” value [1] was “partial mixed-type inhibitor; also recorded: mixed-type inhibition”.
